Experimental findings from US10179125B2, “Substituted pyridines as bromodomain inhibitors” (Zenith Epigenetics Ltd., priority 2014, dated 2019) are described below.

Assay [1] deals with T1, Brd4 bromodomain 1 (BRD4(1)) (Homo sapiens, UniProt O60885).
T1 construct: made in house; host or cells: E. coli BL21(DE3)
As to the kind of experiment: Inhibition of tetra-acetylated histone H4 binding to BET bromodomain (HTRF/FRET). As to conditions: His-tagged bromodomain 200 nM, biotinylated tetra-acetylated histone H4 peptide, 2 h room temperature. The method, then:
Proteins were cloned and overexpressed with a N-terminal 6×His tag, then purified by nickel affinity followed by size exclusion chromatography. Briefly, E. coli BL21(DE3) cells were transformed with a recombinant expression vector encoding N-terminally Nickel affinity tagged bromodomains from Brd2, Brd3, Brd4. Cell cultures were incubated at 37° C. with shaking to the appropriate density and induced overnight with IPTG. The supernatant of lysed cells was loaded onto Ni-IDA column for purification, Eluted protein was pooled, concentrated and further purified by size exclusion chromatography. Fractions representing monomeric protein were pooled, concentrated, aliquoted, and frozen at −80° C. for use in subsequent experiments.
Binding of tetra-acetylated histone H4 and BET bromodomains was confirmed by a Homogenous Time Resolved Fluorescence Resonance Energy Transfer (HTRF®) method, N-terminally His-tagged bromodomains (200 nM) and biotinylated tetra-acetylated histone H4 peptide (25-50 nM, Millipore) were incubated in the presence of Europium Cryptate-labeled streptavidin (Cisbio Cat, #610SAKLB) and XL665-labeled monoclonal anti-His antibody (Cisbio Cat.1461HISXLB) in a white 96 well microtiter plate (Greiner). For inhibition assays, serially diluted test compound was added to these reactions in a 0.2% final concentration of DMSO. Duplicate wells were used for each concentration tested. Final buffer concentrations were 30 mM HEPES pH 7.4, 30 mM NaCl, 0.3 mM CHAPS, 20 mM phosphate pH 7.0, 320 mM KF, 0.08% BSA. After a 2 h incubation at room temperature, fluorescence was measured at 665 and 620 nm with a SynergyH4 plate reader (Biotek). The binding inhibitory activity was shown by a decrease in […] relative to 620 nm fluorescence. IC50 values were determined from a dose response curve.
On the technique in general: TR-FRET usually uses a lanthanide donor and a delayed reading to cut background.

For a further assay, the system named is Human AML MV-4-11 cells. Briefly: Inhibition of cell proliferation in MV4-11 cells (CellTiter Aqueous One). In kind it is cell-based. As to conditions: 72 h; for IC50: Homo sapiens. The method, then:
MV4-11 cells (CRL-9591) were plated at a density of 5×10^4 cells per well in 96 well flat bottom plates and treated with increasing concentrations of test compound or DMSO (0.1%) in IMDM media containing 10% FBS and penicillin/streptomycin. Triplicate wells were used for each concentration and a well containing only media was used as a control. Plates were incubated at 37° C., 5% CO2 for 72 h before adding 20 μL of the CellTiter Aqueous One Solution (Promega) to each well and incubated at 37° C., 5% CO2 for an additional 3-4 h. The absorbance was read at 490 nm in a spectrophotometer and the percentage of cell titer relative to DMSO-treated cells was calculated after correcting for background by subtracting the blank well's signal. IC50 values were calculated using the GraphPad Prism software.

The test system of the next assay is cMYC. Briefly: Inhibition of cMYC expression in MV4-11 cells (real-time PCR). In kind it is cell-based, Human. As to conditions: 3 h, cMYC mRNA; for IC50: Homo sapiens, read-out: c-myc activity. As to the method: MV4-11 cells (CRL-9591) were plated at a density of 2.5×10^4 cells per well in 96 well U-bottom plates and treated with increasing concentrations of test compound or DMSO (0.1%) in IMDM media containing 10% FBS and penicillin/streptomycin, and incubated for 3 h at 37° C. Triplicate wells were used for each concentration. Cells were pelleted by centrifugation and harvested using the mRNA Catcher PLUS kit according to manufacturer's instructions. The eluted mRNA isolated was then used in a one-step quantitative real-time PCR reaction, using components of the RNA UltraSense™ One-Step Kit (Life Technologies) together with Applied Biosystems TaqMan® primer-probes for cMYC and Cyclophilin, Real-time PCR plates were run on a ViiA™7 real time PCR machine (Applied Biosystems), data was analyzed, normalizing the Ct values for cMYC to an internal control, prior to determining the fold expression of each sample, relative to the control.

The next assay concerns hIL-6. Briefly: Inhibition of hIL-6 mRNA transcription in LPS-stimulated U937 cells. Format: cell-based, Human. As to conditions: 1 h pretreatment, LPS 3 h; for IC50: Homo sapiens, U-937, PMA-differentiated U937 cells, read-out: IL-6 activity. As to the method:
Human leukemic monocyte lymphoma U937 cells (CRL-1593.2) were plated at a density of 3.2×10^4 cells per well in a 96-well plate in 100 μL RPMI-1640 containing 10% FBS and penicillin/streptomycin, and differentiated into macrophages for 3 days in 60 ng/mL PMA ([…]) at 37° C. in 5% CO2 prior to the addition of compound. The cells were pretreated for 1 h with increasing concentrations of test compound in 0.1% DMSO prior to stimulation with 1 ug/mL lipopolysaccharide from Escherichia coli. Triplicate wells were used for each concentration. The cells were incubated at 37° C., 5% CO2 for 3 h before the cells were harvested. At time of harvest, media was removed and cells were rinsed in 200 μL PBS. Cells were harvested using the mRNA Catcher PLUS kit according to manufacturer's instructions. The eluted mRNA was then used in a one-step quantitative real-time PCR reaction using components of the RNA UltraSense™ One-Step Kit (Life Technologies) together with Applied Biosystems TaqMan® primer-probes for hIL-6 and Cyclophilin. Real-time PCR plates were run on a ViiA™7 real time PCR machine (Applied Biosystems), data was analyzed, normalizing the Ct values for hIL-6 to an internal control, prior to determining the fold expression of each sample, relative to the control.

For the compound `COc1ncc(-c2c(C)noc2C)cc1NCc1nc2ccccc2o1` [Example 46, N-(benzo[d]oxazol-2-ylmethyl)-5-(3,5-dimethylisoxazol-4-yl)-2-methoxypyridin-3-amine], the IC50 in assay [1] was not above 300 nM; with Human AML MV-4-11 cells it was 3000 to 30000 nM; in the assay on cMYC, 300 to 3000 nM; with hIL-6 it was 300 to 3000 nM.

Consider `COc1ncc(-c2c(C)noc2C)cc1NCc1ccccn1` [Example 21, 5-(3,5-dimethylisoxazol-4-yl)-2-methoxy-N-(pyridin-2-ylmethyl)pyridin-3-amine], for which the IC50 in assay [1] is not above 300 nM; in the assay on Human AML MV-4-11 cells it was 300 to 3000 nM; with cMYC, 300 to 3000 nM; in the assay on hIL-6, 300 to 3000 nM.

Turning to `COc1ncc(-c2c(C)noc2C)cc1Nc1cc(C#N)ccc1C` [Example 61, 3-((5-(3,5-dimethylisoxazol-4-yl)-2-methoxypyridin-3-yl)amino)-4-methylbenzonitrile], the IC50 in assay [1] was not above 300 nM; in the assay on hIL-6, 3000 to 30000 nM. The “Cell Proliferation activity” value in the assay with Human AML MV-4-11 cells is “Not Active”. Besides, in the assay with cMYC, the c-myc activity result is reported as “Not Active”.

Regarding `COc1ncc(-c2c(C)noc2C)cc1NCc1ccc(Cl)s1` [Example 8, N-((5-chlorothiophen-2-yl)methyl)-5-(3,5-dimethylisoxazol-4-yl)-2-methoxypyridin-3-amine], the IC50 was not above 300 nM in assay [1], 3000 to 30000 nM in the assay with Human AML MV-4-11 cells, 3000 to 30000 nM in the assay on cMYC and 300 to 3000 nM in the assay on hIL-6.

As to `COc1ncc(-c2c(C)noc2C)cc1Nc1cn(C)nc1C` [Example 63, N-(1,3-dimethyl-1H-pyrazol-4-yl)-5-(3,5-dimethylisoxazol-4-yl)-2-methoxypyridin-3-amine], the IC50 in assay [1] was not above 300 nM; in the assay on Human AML MV-4-11 cells, 300 to 3000 nM; in the assay with cMYC, 300 to 3000 nM; in the assay on hIL-6, 300 to 3000 nM.

Take `CNc1ncc(-c2c(C)noc2C)cc1NCc1ccccn1` [Example 55, 5-(3,5-dimethylisoxazol-4-yl)-N2-methyl-N3-(pyridin-2-ylmethyl)pyridine-2,3-diamine]: the IC50 in assay [1] was not above 300 nM; in the assay with Human AML MV-4-11 cells, 300 to 3000 nM; with cMYC, 300 to 3000 nM; with hIL-6 it was 300 to 3000 nM.

Take `COc1ncc(-c2c(C)noc2C)cc1Nc1cccnc1C` [Example 59, 5-(3,5-dimethylisoxazol-4-yl)-2-methoxy-N-(2-methylpyridin-3-yl)pyridin-3-amine]: the IC50 in assay [1] was not above 300 nM; in the assay with Human AML MV-4-11 cells, 3000 to 30000 nM; in the assay on cMYC, 300 to 3000 nM; in the assay on hIL-6, 300 to 3000 nM.

Consider `COc1ncc(-c2c(C)noc2C)cc1Oc1cc(C(N)=O)ccc1C` [Example 67, 3-((5-(3,5-dimethylisoxazol-4-yl)-2-methoxypyridin-3-yl)oxy)-4-methylbenzamide], for which the IC50 was not above 300 nM in assay [1], 3000 to 30000 nM in the assay with Human AML MV-4-11 cells, 300 to 3000 nM with cMYC and 300 to 3000 nM in the assay with hIL-6.

Regarding `CNc1ncc(-c2c(C)noc2C)cc1NCc1ccsc1` [Example 68, 5-(3,5-dimethylisoxazol-4-yl)-N2-methyl-N3-(thiophen-3-ylmethyl)pyridine-2,3-diamine], the IC50 in assay [1] was not above 300 nM; in the assay with Human AML MV-4-11 cells, 300 to 3000 nM; with cMYC it was 300 to 3000 nM; with hIL-6, 300 to 3000 nM.

Take `COc1ncc(-c2c(C)noc2C)cc1NCc1ccc2ccccc2c1` [Example 44, 5-(3,5-dimethylisoxazol-4-yl)-2-methoxy-N-(naphthalen-2-ylmethyl)pyridin-3-amine]: the IC50 is not above 300 nM in assay [1], 3000 to 30000 nM in the assay on Human AML MV-4-11 cells, 3000 to 30000 nM in the assay with cMYC and 3000 to 30000 nM in the assay with hIL-6.

For the compound `COc1ncc(-c2c(C)noc2C)cc1NCc1ccc2ccccc2n1` [Example 47, 5-(3,5-dimethylisoxazol-4-yl)-2-methoxy-N-(quinolin-2-ylmethyl)pyridin-3-amine], the IC50 in assay [1] is not above 300 nM. Further, the “Cell Proliferation activity” value with Human AML MV-4-11 cells was “Not Active”. Besides, the c-myc activity result in the assay on cMYC is reported as “Not Active”. Moreover, in the assay with hIL-6 (PMA-differentiated U937 cells), the IL-6 activity entry is recorded as “Not Active”.

With `COc1ncc(-c2c(C)noc2C)cc1Nc1ccc(Cl)cc1` [Example 36, N-(4-chlorophenyl)-5-(3,5-dimethylisoxazol-4-yl)-2-methoxypyridin-3-amine], the IC50 is not above 300 nM in assay [1], 300 to 3000 nM in the assay with Human AML MV-4-11 cells, 300 to 3000 nM in the assay on cMYC and 3000 to 30000 nM in the assay on hIL-6.

With `COc1ncc(-c2c(C)noc2C)cc1NCc1nc2ccccc2s1` [Example 57, N-(benzo[d]thiazol-2-ylmethyl)-5-(3,5-dimethylisoxazol-4-yl)-2-methoxypyridin-3-amine], the IC50 in assay [1] was not above 300 nM; with Human AML MV-4-11 cells, 3000 to 30000 nM; in the assay on cMYC, 300 to 3000 nM; with hIL-6, 300 to 3000 nM.

With `COc1ncc(-c2c(C)noc2C)cc1Oc1ccccc1` [Example 4, 4-(6-methoxy-5-phenoxypyridin-3-yl)-3,5-dimethylisoxazole], the IC50 fell in the range of 300 to 3000 nM in assay [1], 3000 to 30000 nM in the assay on Human AML MV-4-11 cells, 300 to 3000 nM in the assay with cMYC and 300 to 3000 nM in the assay on hIL-6.

Take `COc1ncc(-c2c(C)noc2C)cc1NCCc1ccccc1` [Example 26, 5-(3,5-dimethylisoxazol-4-yl)-2-methoxy-N-phenethylpyridin-3-amine]: the IC50 is 300 to 3000 nM in assay [1], 3000 to 30000 nM with Human AML MV-4-11 cells, 3000 to 30000 nM with cMYC and 3000 to 30000 nM in the assay on hIL-6.

Take `COc1ncc(-c2c(C)noc2C)cc1NCc1cccnc1` [Example 33, 5-(3,5-dimethylisoxazol-4-yl)-2-methoxy-N-(pyridin-3-ylmethyl)pyridin-3-amine]: the IC50 was not above 300 nM in assay [1], 300 to 3000 nM in the assay with Human AML MV-4-11 cells, 300 to 3000 nM in the assay on cMYC and 300 to 3000 nM in the assay on hIL-6.

Consider `COc1ncc(-c2c(C)noc2C)cc1NCc1ccncc1` [Example 17, 5-(3,5-dimethylisoxazol-4-yl)-2-methoxy-N-(pyridin-4-ylmethyl)pyridin-3-amine], for which the IC50 was in the range of 300 to 3000 nM in assay [1], 3000 to 30000 nM in the assay on Human AML MV-4-11 cells, 3000 to 30000 nM in the assay on cMYC and 300 to 3000 nM in the assay with hIL-6.

Regarding `COc1ncc(-c2c(C)noc2C)cc1NCc1ccc(C#N)c(F)c1` [Example 29, 4-(((5-(3,5-dimethylisoxazol-4-yl)-2-methoxypyridin-3-yl)amino)methyl)-2-fluorobenzonitrile], the IC50 in assay [1] was not above 300 nM; in the assay on Human AML MV-4-11 cells, 300 to 3000 nM; in the assay with cMYC it was 300 to 3000 nM; in the assay on hIL-6, not above 300 nM.
